Experimental data published in patent US12414948B2, “Methods” (INTRA-CELLULAR THERAPIES, INC., priority 2022, dated 2025).

Columns and labels:
[1] = tested on: hippocampal cytokine mRNA (Il1b, Il6, Tnfa, Il10); test: Hippocampal cytokine mRNA (qRT-PCR) after co-injection of LPS and lumateperone; format: in vivo, mouse; conditions: mice, 2 h, relative change normalized to control (Dct method)
Experimental: All other reagents are obtained in the highest purity available from Sigma-Aldrich (St. Louis, MO) unless otherwise noted. […] Some rodents are given a cotreatment with a subcutaneous (SC) injection of lipopolysaccharide (LPS, 500 μg/kg; Sigma-Aldrich, ref #0127:B8) diluted in 0.9% injectable saline while control group animals receive injections of all vehicles matching the experimental conditions. […] On day 2, either no injection for naïve rats, or saline or LPS is injected (1 mg/kg, SC).
Animals. Adult, male C57BL/6 mice weighing 28-30 grams at the time of the experiment are housed in groups of 4 or 5 in small cages. Adult, male Sprague-Dawley rats weighing 175-200 grams at the time of arrival after shipping are housed in pairs. All animals are housed under standard laboratory housing conditions with a 12-hour light/dark cycle and ad libitum access to food and water.
Tissue Collection. […] Rats are euthanized 18 hours after LPS injection for sample collection. Hippocampi from mice and rats are rapidly dissected under RNAse-free conditions and placed in 1.5 mL Eppendorf tubes. When appropriate, samples are snap frozen in liquid nitrogen prior to storage at −80° C. until further analysis. Trunk blood is collected from mice into serum collection tubes, allowed to clot at room temperature for 1 hour, then centrifuged at 1,500 g for 10 minutes at 4° C.
Quantitative Real-Time PCR. Mouse hippocampal tissue is homogenized with glass beads in 1 mL of TRIzol reagent using a BeadBeater (Biospec Products, Bartlesville, OK). Heavy phase-lock gel tubes enabled separation of phases following the addition of 400 μL chloroform to the sample and centrifugation at 12,000 rpm for 10 minutes at room temperature. RNA is extracted using Qiagen Rneasy kit (Qiagen, Hilden, Germany). For cDNA synthesis, 2 μg of total RNA is used (SuperScript IV Reverse Transcriptase; ThermoFisher Scientific, Waltham, MA). The purity and concentration of RNA is measured with a Nanodrop spectrophotometer; the optical density (OD) 260/280 and OD 260/230 are within 1.8-2.3. In the hippocampus, 4 key markers of pro- and anti-inflammatory cytokines and chemokines (Il1b: ID Mm00434228_m1, Tnfa: ID Mm00443258_m1, 116: ID Mm00446190_m1, and I110: ID Mm01288386_m1; ThermoFisher Scientific) are initially chosen for analysis (n=5-12 per group). In subsequent experiments, the transcripts for other markers of inflammation are chosen for analysis including Icam1 (ID Mm00516023_m1; a cell adhesion molecule involved in immune cell migration), Cldn5 (ID Mm00727012_s1; a tight junctions protein), colony stimulating factor 1 (Csf1: ID Mm00432686_m1; a factor that regulates microglia function) and its receptor Csf1r (ID Mm01266652_m1), and the nucleotide binding and oligomerization domain-like receptor family pyrin domain-containing 3 inflammasome complex (Nlrp3: Mm00840904_m1). Gapdh (ID Mm99999915_g1) is chosen as a housekeeping gene. QuantStudio 7 (ThermoFisher Scientific) is used for analyzing the plates (MicroAmp Optical 384-well plates; Applied Biosystems, Waltham, MA, and ThermoFisher Scientific) that are loaded with TaqMan Universal Master Mix II without uracil-DNA glycosylate in a 20 μl reaction volume using 100 ng cDNA per well. All mRNAs are measured by qRT-PCR on ABI Prism 7900HT system using TaqMan Gene Expression Assays. Ct values of genes of interest are normalized to that of the reference gene (Gapdh).
Specific cytokines are elevated in serum or plasma of patients with MDD and other psychiatric disorders. Here, the gene and protein expression of a subset of pro- and anti-inflammatory cytokines is measured in mouse brain in response to an inflammatory challenge using a single dose of LPS (500 μg/kg) to induce acute brain inflammation. […] The results are shown in Table 1A as relative change in mRNA levels for each cytokine gene (Il1b, Il6, Tnfa, Il10) normalized to the control group using the Dct method (n=5-12 per group): […]

[2] = tested on: PBMCs from patients with schizophrenia and co-morbid depression; test: Post-hoc analysis of inflammatory biomarkers in PBMCs, phase 3 clinical trial; format: in vivo, human
Experimental: A randomized, double-blind, placebo-controlled, phase 3 clinical trial was conducted with 450 patients with schizophrenia, aged 18 to 60 years, who were experiencing an acute exacerbation of psychosis. Patients were included if they were experiencing an acute exacerbation of psychosis, defined as a total score on the Brief Psychiatric Rating Scale of […] or higher, with a score of 4 or higher on 2 or more positive symptoms, and onset of the acute episode within 4 weeks of screening. Patients were required to have a score of 4 or higher, indicating moderate to severe disease severity, on the Clinical Global Impression-Severity of Illness (CGI-S) at screening and baseline. Severity of illness was confirmed at baseline by a Positive and Negative Syndrome Scale (PANSS) total score of 70 or higher, indicating moderate to extreme symptoms of schizophrenia. A subgroup of these patients experienced co-morbid depression symptoms at baseline (defined as having a Calgary Depression Scale for Schizophrenia (CDSS) score greater than 6 at baseline). Full details of the clinical study were reported in Correll et al., JAMA Psychiatry, 77(4): 349-358 (2020).
Using blood samples stored from the study, a post-hoc analysis of inflammatory biomarkers in PBMCs from the patients with schizophrenia and co-morbid depression is conducted. […] Day 0 samples are available for 20 patients, while day 28 samples are available only for 18 patients. Mean baseline CDSS is 10.0, and mean baseline PANSS total score is 88.7 in the selected patients.
Samples were processed to isolate PBMC according to standard procedures using the Ficoll-Paque method. Statistical analysis was performed using the paired t-test, two-tailed. Samples were tested for C-reactive protein (CRP), serum amyloid A (SAA), soluble CAM-1, soluble VCAM-1, IL-1β, TNF-αL, IL-6, IL-10, IL-2, IL-8, IL-13, and IFN-γ. ICAM-1 and VCAM-1 are expressed by the vascular endothelium, macrophages, and lymphocytes. Upon cytokine stimulation, their concentrations greatly increase. ICAM-1 can be induced by IL-1β and TNF. ICAM and VCAM proteins may also be involved in pathogen transit into CNS.
The results are shown in the table below (biomarker levels expressed in ng/mL; some values of N are less than the patient totals due to samples with levels of biomarker below the minimum for quantification): […]

[3] = Luma 0.3 mg/kg IP co-injected with LPS 500 μg/kg SC
[4] = Luma 3 mg/kg IP co-injected with LPS 500 μg/kg SC
[5] = Luma 8 mg/kg IP co-injected with LPS 500 μg/kg SC
[6] = Day 28 of 60 mg lumateperone once daily, PBMC, schizophrenia patients with co-morbid depression

With `CN1CCN2c3c(cccc31)[C@@H]1CN(CCCC(=O)c3ccc(F)cc3)CC[C@@H]12` [Luma, lumateperone] the “Hippocampal cytokine mRNA expression IL-6” value [1, 3] was 0.52, the “Hippocampal cytokine mRNA expression IL-10” value [1, 3] was −0.28 and the “Hippocampal cytokine mRNA expression TNF-alpha” value [1, 3] was 0.43. The “Hippocampal cytokine mRNA expression IL-1b” value [1, 4] was 0.85, the “Hippocampal cytokine mRNA expression IL-6” value [1, 4] was 0.15 and the “Hippocampal cytokine mRNA expression TNF-alpha” value [1, 4] was −0.09. The “Hippocampal cytokine mRNA expression IL-1b” value [1, 5] was 0.43, the “Hippocampal cytokine mRNA expression IL-6” value [1, 5] was 0.16 and the “Hippocampal cytokine mRNA expression TNF-alpha” value [1, 5] was −0.24. For the same molecule, the “CRP, Median” value [2, 6] was 38.0 ng/mL, the “IFN-γ, Average” value [2, 6] was 0.86 ng/mL and the “IFN-γ, Median” value [2, 6] was 0.71 ng/mL. For the same molecule, the “IL-1β, Median” value [2, 6] was 0.74 ng/mL, the “IL-2, Average” value [2, 6] was 0.37 ng/mL and the “IL-2, Median” value [2, 6] was 0.25 ng/mL. For the same molecule, the “IL-6, Average” value [2, 6] was 0.55 ng/mL, the “IL-6, Median” value [2, 6] was 0.32 ng/mL and the “IL-8, Median” value [2, 6] was 44.0 ng/mL. The “IL-10, Median” value [2, 6] was 0.21 ng/mL, the “TNF-α, Average” value [2, 6] was 0.83 ng/mL and the “TNF-α, Median” value [2, 6] was 0.43 ng/mL. For the same molecule, the “sVCAM-1, Median” value [2, 6] was 42.0 ng/mL and the “Levels of inflammatory biomarkers in blood cells (PBMCs)” value ([2]; after 28 days of treatment, versus baseline, patients with schizophrenia and co-morbid depression) was “significantly reduced”.
With “lipopolysaccharide [LPS, reference compound]” the “Hippocampal cytokine mRNA expression IL-1b” value ([1]; LPS 500 μg/kg SC + vehicle) was 2.88, the “Hippocampal cytokine mRNA expression IL-6” value ([1]; LPS 500 μg/kg SC + vehicle) was 1.03 and the “Hippocampal cytokine mRNA expression IL-10” value ([1]; LPS 500 μg/kg SC + vehicle) was 0.43. The “Hippocampal cytokine mRNA expression TNF-alpha” value ([1]; LPS 500 μg/kg SC + vehicle) was 1.75.
